This note sets out measurements from publication PMC3681751, “Identification of a Novel Antimicrobial Peptide from Human Hepatitis B Virus Core Protein Arginine-Rich Domain (ARD)” (PLoS Pathogens, 2013).

Where two headings read alike, the source gives them in different places. Non-standard residues stand in square brackets, D forms with d. Residues, ends and D or L forms follow the SMILES beside them. No end group written: not given here. pS = N[C@@H](COP(=O)(O)O)C(=O)O Some results are limits rather than exact numbers.

Test [1] has as its system P. aeruginosa (ATCC 27853). Format: cell-based, Pseudomonas aeruginosa. On the procedure: (§1) The antimicrobial activities of HBc ARD peptides were tested using a number of bacterial strains from ATCC, including Pseudomonas aeruginosa Migula strain (ATCC 27853, ampicillin-resistant), Pseudomonas aeruginosa Migula strain (ATCC 9027, ampicillin-resistant), Klebsiella pneumoniae strain (ATCC 17593), Escherichia coli strain (ATCC 25922), Staphylococcus aureus subsp. strain (ATCC 25923, methicillin-resistant), Staphylococcus aureus subsp. strain (ATCC 29213, methicillin-resistant), Staphylococcus aureus subsp. strain (ATCC 19636, methicillinresistant), and Candida albicans strain (ATCC 10231).
(§2) All peptides were purchased from Yao-Hong Biotechnology Inc. (Taipei, Taiwan). Vendors provided data of peptide characterizations, including HPLC and Mass (data not shown). Antimicrobial activity was determined as described with some modifications as detailed below. Bacteria were grown overnight in Mueller–Hinton broth (Difco) at 37°C, and during the mid-logarithmic phase, bacteria were diluted to 10^6 CFU (colony formation unit)/ml in phosphate buffer (10 mM sodium phosphate and 50 mM sodium chloride, pH 7.2). Peptides were serially diluted in the same buffer. Fifty microliter (µl) of bacteria was mixed with fifty µl of peptides at varying concentrations followed by incubation at 37°C for 3 hours without shaking. At the end of incubation, bacteria were placed on Mueller-Hinton broth agar plates, and allowed growth at 37°C overnight for measurement of minimal bactericidal concentration (MBC). […] All peptides were tested in triplicate.

Test [2] relates to P. aeruginosa (ATCC 9027). Format: cell-based, Pseudomonas aeruginosa. How it is done: as §1, §2
Test [3] relates to K. pneumonia (ATCC 13884). Format: cell-based, Klebsiella pneumoniae.
A further test has as its system E. coli (ATCC 25922). Format: cell-based, Escherichia coli. On the procedure:
as §1, §2

A further test relates to S. aureus (ATCC 19636). Format: cell-based, Staphylococcus aureus. On the procedure: as §1, §2
The test system of the next test is S. aureus (ATCC 25923). Format: cell-based, Staphylococcus aureus. On the procedure:
as §1, §2

The next test has as its system S. aureus (ATCC 29213). Format: cell-based, Staphylococcus aureus. How it is done: as §1, §2
The subject of test [4] is tested bacteria and fungi. Format: cell-based. Particulars: for MBC for bacteria: summary over the tested bacteria of Table 1; for Activity against all of the tested bacteria and fungi: summary of Table 1. On the procedure:
as §1, §2

[5] abbreviates: ampicillin-resistant strain, 3 h at 37°C in phosphate buffer pH 7.2, triplicate.
The mark [6] stands for this setting: 3 h at 37°C in phosphate buffer pH 7.2, triplicate.
The mark [7] stands for this setting: methicillin-resistant strain, 3 h at 37°C in phosphate buffer pH 7.2, triplicate.
The mark [8] stands for this setting: ampicillin-resistant strain, 3 h at 37°C in 10 mM sodium phosphate, 50 mM NaCl, pH 7.2, 10^6 CFU/ml, triplicate, ND = not detectable.
Where [9] appears, read: 3 h at 37°C in 10 mM sodium phosphate, 50 mM NaCl, pH 7.2, 10^6 CFU/ml, triplicate, ND = not detectable.
Setting [10] is: methicillin-resistant strain, 3 h at 37°C in 10 mM sodium phosphate, 50 mM NaCl, pH 7.2, 10^6 CFU/ml, triplicate, ND = not detectable.

As for `CC(C)[C@H](NC(=O)[C@@H](NC(=O)[C@@H](N)[C@@H](C)O)C(C)C)C(=O)N[C@@H](CCCNC(=N)N)C(=O)N[C@@H](CCCNC(=N)N)C(=O)N[C@@H](CCCNC(=N)N)C(=O)NCC(=O)N[C@@H](CCCNC(=N)N)C(=O)N[C@@H](COP(=O)(O)O)C(=O)N1CCC[C@H]1C(=O)N[C@@H](CCCNC(=N)N)C(=O)N[C@@H](CCCNC(=N)N)C(=O)N[C@@H](CCCNC(=N)N)C(=O)N[C@H](C(=O)N1CCC[C@H]1C(=O)N[C@@H](COP(=O)(O)O)C(=O)N1CCC[C@H]1C(=O)N[C@@H](CCCNC(=N)N)C(=O)N[C@@H](CCCNC(=N)N)C(=O)N[C@@H](CCCNC(=N)N)C(=O)N[C@@H](CCCNC(=N)N)C(=O)N[C@@H](CO)C(=O)N[C@@H](CCC(N)=O)C(=O)N[C@@H](COP(=O)(O)O)C(=O)N1CCC[C@H]1C(=O)N[C@@H](CCCNC(=N)N)C(=O)N[C@@H](CCCNC(=N)N)C(=O)N[C@@H](CCCNC(=N)N)C(=O)N[C@@H](CCCNC(=N)N)C(=O)N[C@@H](CO)C(=O)N[C@@H](CCC(N)=O)C(=O)N[C@@H](CO)C(=O)N[C@@H](CCCNC(=N)N)C(=O)N[C@@H](CCC(=O)O)C(=O)N[C@@H](CO)C(=O)N[C@@H](CCC(N)=O)C(=O)N[C@@H](CS)C(=O)O)[C@@H](C)O` [HBc155p162p170p], the “Antimicrobial activity, MBC” value in test [1] (ATCC 27853, 3 h, pH 7.2) is over 32 µM; in test [1] (setting [5]) it was over 154.5 µg/mL; in test [2] (ATCC 9027, 3 h, pH 7.2), over 32 µM; in test [2] (setting [5]) it was over 154.5 µg/mL; in test [3] (setting [6]) it was over 154.5 µg/mL; in test [3] (ATCC 13884, 3 h, pH 7.2), over 32 µM. In addition, the “Antimicrobial activity, MBC” value was over 154.5 µg/mL in the test on E. coli (ATCC 25922) (setting [6]); over 32 µM in the test with E. coli (ATCC 25922) (ATCC 25922, 3 h, pH 7.2); over 32 µM in the test on S. aureus (ATCC 19636) (ATCC 19636, 3 h, pH 7.2); over 154.5 µg/mL with S. aureus (ATCC 19636) (setting [7]); over 32 µM in the test on S. aureus (ATCC 25923) (ATCC 25923, 3 h, pH 7.2); over 154.5 µg/mL with S. aureus (ATCC 25923) (setting [7]). The “Antimicrobial activity, MBC” value with S. aureus (ATCC 29213) (ATCC 29213, 3 h, pH 7.2) was over 32 µM; in the test on S. aureus (ATCC 29213) (setting [7]), over 154.5 µg/mL. The “MBC for bacteria” value in test [4] is over 32 µM.

For “HBc164-176: HBc ARD peptide ARD III–IV (RRRRSQSPRRRRS; UniProt P03147 164-176, looked up, fragment)”, in test [4], the “Activity against all of the tested bacteria and fungi” value (“Activity against all” below) was “no activity”.

In the case of “HBc176p: HBc147-183 phosphorylated on S176 (TVVRRRGRSPRRRTPSPRRRRSQSPRRRR[pS]QSRESQC; UniProt P03147 147-183, looked up, fragment)”, the “Antimicrobial activity, MBC” value is 8 µM in test [1] (setting [8]); 37.4 µg/mL in test [1] (setting [5]); 8 µM in test [2] (setting [8]); 37.4 µg/mL in test [2] (setting [5]); 4 µM in test [3] (setting [9]); 18.68 µg/mL in test [3] (setting [6]). For the same compound, the “Antimicrobial activity, MBC” value in the test on E. coli (ATCC 25922) (setting [9]) is 8 µM; in the test with E. coli (ATCC 25922) (setting [6]), 37.4 µg/mL; with S. aureus (ATCC 19636) (setting [10]), 8 µM; with S. aureus (ATCC 19636) (setting [7]), 37.4 µg/mL; in the test on S. aureus (ATCC 25923) (setting [10]), 8 µM; in the test on S. aureus (ATCC 25923) (setting [7]), 37.4 µg/mL. Further, the “Antimicrobial activity, MBC” value with S. aureus (ATCC 29213) (setting [10]) amounted to 8 µM; with S. aureus (ATCC 29213) (setting [7]) it was 37.4 µg/mL. The “MBC for bacteria” value in test [4] came out at 8 µM.

On to “HBc155p: HBc147-183 phosphorylated on S155 (TVVRRRGRSPRRRTPSPRRRRSQSPRRRRSQSRESQC; phosphorylated S155; UniProt P03147 147-183, looked up, fragment)”, for which the “Antimicrobial activity, MBC” value in test [1] (setting [8]) stood at 8 µM; in test [1] (setting [5]), 37.4 µg/mL; in test [2] (setting [8]) it was 8 µM; in test [2] (setting [5]) it was 37.4 µg/mL; in test [3] (setting [9]), 1 µM; in test [3] (setting [6]), 4.67 µg/mL. Moreover, the “Antimicrobial activity, MBC” value was 8 µM in the test with E. coli (ATCC 25922) (setting [9]); 37.4 µg/mL in the test with E. coli (ATCC 25922) (setting [6]); 8 µM with S. aureus (ATCC 19636) (setting [10]); 37.4 µg/mL with S. aureus (ATCC 19636) (setting [7]); 8 µM in the test with S. aureus (ATCC 25923) (setting [10]); 37.4 µg/mL in the test with S. aureus (ATCC 25923) (setting [7]). For the same compound, the “Antimicrobial activity, MBC” value with S. aureus (ATCC 29213) (setting [10]) was determined as 8 µM; in the test on S. aureus (ATCC 29213) (setting [7]), 37.4 µg/mL. In addition, in test [4], the “MBC for bacteria” value amounted to 8 µM.

Regarding `CC(C)[C@H](NC(=O)[C@@H](NC(=O)[C@@H](N)[C@@H](C)O)C(C)C)C(=O)N[C@@H](CCCNC(=N)N)C(=O)N[C@@H](CCCNC(=N)N)C(=O)N[C@@H](CCCNC(=N)N)C(=O)NCC(=O)N[C@@H](CCCNC(=N)N)C(=O)N[C@@H](CO)C(=O)N1CCC[C@H]1C(=O)N[C@@H](CCCNC(=N)N)C(=O)N[C@@H](CCCNC(=N)N)C(=O)N[C@@H](CCCNC(=N)N)C(=O)N[C@H](C(=O)N1CCC[C@H]1C(=O)N[C@@H](CO)C(=O)N1CCC[C@H]1C(=O)N[C@@H](CCCNC(=N)N)C(=O)N[C@@H](CCCNC(=N)N)C(=O)N[C@@H](CCCNC(=N)N)C(=O)N[C@@H](CCCNC(=N)N)C(=O)N[C@@H](CO)C(=O)N[C@@H](CCC(N)=O)C(=O)N[C@@H](CO)C(=O)N1CCC[C@H]1C(=O)N[C@@H](CCCNC(=N)N)C(=O)N[C@@H](CCCNC(=N)N)C(=O)N[C@@H](CCCNC(=N)N)C(=O)N[C@@H](CCCNC(=N)N)C(=O)O)[C@@H](C)O` [HBc147-175] (H-TVVRRRGRSPRRRTPSPRRRRSQSPRRRR-OH; N-terminus and C-terminus assumed), the “Antimicrobial activity, MBC” value in test [1] (ATCC 27853, 3 h, pH 7.2) came to 1 µM; in test [1] (setting [5]) it was 3.68 µg/mL; in test [2] (ATCC 9027, 3 h, pH 7.2), 0.5 µM; in test [2] (setting [5]), 1.84 µg/mL; in test [3] (setting [6]), 3.68 µg/mL; in test [3] (ATCC 13884, 3 h, pH 7.2), 1 µM. Further, the “Antimicrobial activity, MBC” value with E. coli (ATCC 25922) (setting [6]) is 3.68 µg/mL; in the test on E. coli (ATCC 25922) (ATCC 25922, 3 h, pH 7.2), 1 µM; in the test on S. aureus (ATCC 19636) (ATCC 19636, 3 h, pH 7.2), over 32 µM; with S. aureus (ATCC 19636) (setting [7]), over 117.86 µg/mL; with S. aureus (ATCC 25923) (ATCC 25923, 3 h, pH 7.2), over 32 µM; with S. aureus (ATCC 25923) (setting [7]), over 117.86 µg/mL. Also, the “Antimicrobial activity, MBC” value is over 32 µM in the test on S. aureus (ATCC 29213) (ATCC 29213, 3 h, pH 7.2) and over 117.86 µg/mL in the test on S. aureus (ATCC 29213) (setting [7]). Also, the “MBC against S. aureus” value against S. aureus (ATCC 19636) (text summary over the S. aureus strains of Table 1 (ATCC 19636, 25923, 29213)) was “lost the activity”.

Regarding “HBc170p: HBc147-183 phosphorylated on S170 (TVVRRRGRSPRRRTPSPRRRRSQ[pS]PRRRRSQSRESQC; UniProt P03147 147-183, looked up, fragment)”, the “Antimicrobial activity, MBC” value is about 32 µM in test [1] (setting [8]); about 149.5 µg/mL in test [1] (setting [5]); about 32 µM in test [2] (setting [8]); about 149.5 µg/mL in test [2] (setting [5]); 8 µM in test [3] (setting [9]); 37.4 µg/mL in test [3] (setting [6]). Moreover, the “Antimicrobial activity, MBC” value in the test on E. coli (ATCC 25922) (setting [9]) is about 32 µM; in the test on E. coli (ATCC 25922) (setting [6]) it was about 149.5 µg/mL; in the test with S. aureus (ATCC 19636) (setting [10]), about 32 µM; in the test on S. aureus (ATCC 19636) (setting [7]) it was about 149.5 µg/mL; in the test on S. aureus (ATCC 25923) (setting [10]), about 32 µM; with S. aureus (ATCC 25923) (setting [7]), about 149.5 µg/mL. For the same compound, the “Antimicrobial activity, MBC” value is about 32 µM in the test on S. aureus (ATCC 29213) (setting [10]) and about 149.5 µg/mL in the test on S. aureus (ATCC 29213) (setting [7]). The “MBC for bacteria” value in test [4] is 32 µM.

Consider “HBc147-159: HBc ARD peptide ARD I–II (TVVRRRGRSPRRR; UniProt P03147 147-159, looked up, fragment)”, for which the “Activity against all” value in test [4] is on record as “no activity”.

Consider “HBc162-175: HBc ARD peptide ARD III–IV (SPRRRRSQSPRRRR; UniProt P03147 162-175, looked up, fragment)”, for which the “Activity against all” value in test [4] was “no activity”.
